Experimental data published in patent US11285130B2, “Treatment of mitochondrial diseases” (Khondrion IP B.V., priority 2017, dated 2022).
Like-named read-outs stand apart in the source and are kept apart here.

Tests used:
[1] = test system: primary human fibroblasts from patients with Leigh syndrome; test: Oxidative stress-induced cell death (BSO) assay, Leigh patient fibroblasts; assay type: cell-based; conditions: Homo sapiens, in vitro fibroblast assays (Redox assay), fibroblast type not given, values match Leigh
Excerpt: (§1) To determine the effective concentration of the compounds (the concentrations that protect patient cells against oxidative stress-induced cell death) the applicant established an assay using stressed primary human fibroblasts from patients with Leigh syndrome, MELAS or LHON diseases. Utilising the inherent oxidative stress of fibroblasts from patients with mitochondrial disease, their oxidative burden was further increased by depleting cellular glutathione with an inhibitor of glutathione synthesis, L-buthionine-(S,R)-sulfoximine (BSO). […] Cells were seeded at a density of 3000 cells/well in a 96-well format and incubated with increasing concentrations of compounds in combination with BSO (100 μM, Sigma-aldrich). One day after treatment, the cells were washed twice and stained with a solution of 5 μM calcein-AM (Life technologies C3100MP) during 25 min in 199 medium without phenol red (Life technologies, 11043-023) at room temperature. After 2 washes with PBS (Phosphate buffered saline) the plate was read on a fluorescence plate reader (Fluostar Omega, BMG labtech) and the percentage of cell viability determined as a function of fluorescence intensity.

[2] = Phospholipidosis assessment in MAD study (urinary di-22:6-BMP, electron microscopy of peripheral leucocytes)
Description: Therefore, the presence of phospholipidosis was determined by the concentration of di-docosahexaenoyl (22:6)-bis(monoacylglycerol) phosphate (di-22:6-BMP) in a midstream urine sample and by electron microscopy of peripheral leucocytes at Day 1 and 7 in the MAD study (Pospischil A. et al, Exp. Toxicol Pathol 2010, 62:567-571).

[3] = ECG post-hoc analysis, MAD study; assay type: in vivo, human; design: QTcF: largest median baseline increase / QTcF: largest individual increase: unit not given here
Description: The changes from baseline (pre-dose assessment on Day 1) for body weight, physical examinations, vital signs, ECG-variables and clinical laboratory variables were determined for each time point. Treatment-emergent laboratory and ECG abnormalities as well as adverse events were monitored throughout the study, up to 28 Days after the last study drug intake.
The goal of this post-hoc optimization study was to repeat the ECG assessment with an highly automated computer-assisted approach where in addition to the re-evaluation of standard intervals (PR, QRS and QT intervals), a set of parameters describing repolarization morphology were considered. The morphology indices were the TpTe interval (interval from the T wave apex to the end of the T wave), the TpTe/QT index (the ratio between the TpTe interval and the QT interval), Tamp (the amplitude in microvolt units of the T wave) and TSym (an index of repolarization morphology based on the symmetry of the T wave).
ECGs were digitally recorded using a Schiller AT104 ECG machine (500 Hz, 1 μV). Cardiac interval measurements were performed on the Global Superimposed Median Beat (GSMB), a methodology that allows measurements that consider each of the 12 individual median beats. This measurement methodology ensures that the PR, QRS, and QT interval are measured from the earliest onset in any lead to the latest deflection in any lead. Cardiologist overview of the computer-based measurements is based on the superimposed (overlapped) display of the individual median beats, to assure measurements are performed at the earliest onset of any viable lead to the latest offset of any viable lead.
The RR interval used for heart-rate correction of the QT interval (QTcB) was based on all the beats in the ten second recording.
Other cardiac parameters were computed from the 12-lead vector magnitude VM (e.g. the square root of the sum of squares at each digital sample) computed from the individual median beats. On the VM lead, the apex of the T wave is placed and used to compute the TpTe interval (using the end of the T wave from the GSMB) and the T wave amplitude (height in microvolt of the VM T peak from the isoelectric line). […] T wave symmetry index was computed using a proprietary approach based on Gaussian Mesa function modeling (GMF) of the repolarization waves (Badilini F et al. J Electrocardiol 2008, 41:588-594). Briefly, the ascending and descending phases of the VM T wave are modeled by two independent half-Gaussian curves (see FIG. 3). The standard deviations of these functions (σ1 and σ2) and indicators of the ascending/descending speed and their ratio is an index of symmetry (TSym=σ1/σ2; TSym=1 for a perfectly symmetric T wave, TSym<1 for slow-ascending/fast-descending T waves, T>1 for fast-ascending/slow-decending T waves).
For the pre-dose (baseline) ECGs, all parameters per time point were calculated as the averages of the triplicate ECGs. Computation of QTcB and QTcF was performed using the RR interval averaged from the total ECG acquisition duration (10 seconds) and in the case of the triplicate ECGs is based on the average QT and average HR of the replicate ECGs.
The over-reading cardiologist provided a clinical interpretation for each ECG at each time point. Each ECG was classified as Normal, Abnormal Clinically Insignificant (ACI), or Abnormal Clinically Significant (ACS). Results of this post-hoc analysis were used for an exposure-response evaluation for the changes in the electrophysiological parameters as a function of the concentration of KH176.

[4] = test system: primary human fibroblasts from patients with LHON; test: Oxidative stress-induced cell death (BSO) assay, LHON patient fibroblasts; assay type: cell-based; conditions: Homo sapiens, Fibroblast; fibroblasts derived from LHON patients, 100 μM BSO; read-out: EC50, protection from oxidative stress-induced cell death
Excerpt: as §1

Protein binding = assay type: in vitro ADME
[5] = male, human, in vivo, 28 days
[6] = male, human, in vivo, 7 days

## Cc1c(C)c2c(c(C)c1O)CC[C@@](C)(C(=O)N[C@@H]1CCCNC1)O2.Cl [KH176, (S)-6-hydroxy-2,5,7,8-tetramethyl-N-((R)-piperidin-3-yl)chroman-2-carboxamide hydrochloride]
[1]; read-out: EC50
  EC50: 182 nM
[1]; read-out: EC50 expressed
  EC50: ~0.06 µg/mL
[2]; MAD group III (100 mg BID)
  di-22:6-BMP in urine, change from Day 1 to Day 7: 0.74-2.50 ng/mg creatinine
[2]; MAD group IV (200 mg BID)
  di-22:6-BMP in urine, change from Day 1 to Day 7: −1.44-1.32 ng/mg creatinine
[2]; MAD group V (400 mg BID)
  di-22:6-BMP in urine, change from Day 1 to Day 7: −0.69-1.46 ng/mg creatinine
[2]; in vivo
  prevalence of phospholipidosis in granulocytes or monocytes by electron microscopy: No increased prevalence
[3]; MAD 100 mg b.i.d.
  effect on QTcF: no effect
[3]; MAD 200 mg
  PR interval: largest median baseline increase: 12 ms
  QTcF: largest individual increase: 28.3
  QTcF: largest median baseline increase: 13.3
  T-wave symmetry index: largest individual increase: 0.6
  T-wave symmetry index: largest median baseline increase: 0.45
  TpTe interval: largest individual increase: 46 ms
  TpTe interval: largest median baseline increase: 24 ms
[3]; MAD 200 mg b.i.d., Day 5
  QTcF, median maximum change from baseline: 13 ms
[3]; MAD 400 mg
  PR interval: largest median baseline increase: 19 ms
  QRS interval: largest individual increase: 15.3 ms
  QRS interval: largest median baseline increase: 9.7 ms
  QTcF: largest individual increase: 43.7
  QTcF: largest median baseline increase: 29.2
  T-wave symmetry index: largest individual increase: 0.99
  T-wave symmetry index: largest median baseline increase: 0.63
  TpTe interval: largest individual increase: 62.7 ms
  TpTe interval: largest median baseline increase: 42.3 ms
[3]; MAD 400 mg b.i.d., Day 6
  QTcF, median maximum change from baseline at trough: 29 ms
[4]
  EC50: 49 nM
Protein binding
  fraction unbound: 0.4 to 0.5
[5]
  AEs rated mild in severity: 35
  AEs reported by subjects in the highest dose group: 28
  moderate AEs: 6
  severe AEs: 2
  subjects reporting AEs: 14 subjects
  total adverse events (AEs) reported: 43
[6]
  AEs rated mild in severity: 27
  moderate AEs: 2
  subjects reporting AEs: 10 subjects
